Measured values taken from paper PMC9412104, “Biochemical and Structural Insights on the Poplar Tau Glutathione Transferase GSTU19 and 20 Paralogs Binding Flavonoids” (Frontiers in Molecular Biosciences, 2022).
Like-named read-outs stand apart in the source and are kept apart here.

Key:
[1] = molecular target: T1, PtGSTU19Y160A (Populus trichocarpa, UniProt B9HKX9, Y160A); experiment: GSH-conjugation activity toward model substrates, variant; type: biochemical; details: PtGSTU19 Y160A, fixed saturating GSH, mean ± S.D.; for k cat: n = 3; for Km: n = 3, read-out: apparent KM
Method: (§2) Peroxidase activity toward hydroperoxides was measured using an NADPH coupled spectrophotometric assay ([Pégeot et al., 2014]).
(§3) The measured velocities were corrected by subtracting the rate of the spontaneous nonenzymatic reaction, and three independent experiments were performed at each substrate concentration.

[2] = molecular target: T2, PtGSTU19Y160C (Populus trichocarpa, UniProt B9HKX9, Y160C); experiment: as above; type: biochemical; details: PtGSTU19 Y160C, fixed saturating GSH, mean ± S.D.; for k cat: n = 3; for Km: n = 3, read-out: apparent KM
Method: as §2, §3

[3] = molecular target: T3, PtGSTU19Y160F (Populus trichocarpa, UniProt B9HKX9, Y160F); experiment: as above; type: biochemical; details: for k cat / Km: PtGSTU19 Y160F, GSH-conjugation, fixed saturating GSH, mean ± S.D., n = 3; for Km: read-out: apparent KM
Method: as §2, §3

[4] = molecular target: T4, PtGSTU20C160Y (Populus trichocarpa, UniProt D2X9R3, C160Y); experiment: as above; type: biochemical; details: PtGSTU19 C160Y in Table S4, fixed saturating GSH, mean ± S.D.; for k cat: n = 3; for Km: n = 3, read-out: apparent KM
Method: as §2, §3

[5] = molecular target: T5, PtGSTU19 (Populus trichocarpa, UniProt B9HKX9); experiment: GSH-conjugation activity toward model substrates; details: for Catalytic efficiency: PtGSTU19; for k cat / k cat/K m: PtGSTU19, 25°C, fixed 1 mM GSH (0.7 mM with HNE), mean ± S.D., n = 3
[6] = molecular target: T6, PtGSTU20 (Populus trichocarpa, UniProt D2X9R3); experiment: GSH-conjugation activity toward model substrates
[7] = molecular target: T5, PtGSTU19; experiment: Competition (inhibition) assay of GSH-conjugation with PITC as substrate; type: biochemical
Method: (§4) The measured velocities were corrected by subtracting the rate of the spontaneous nonenzymatic reaction, and three independent experiments were performed at each substrate concentration. The kinetic parameters (k cat and apparent K m) and the inhibition constants (K i) were, respectively, obtained by fitting the data to the nonlinear regression Michaelis–Menten model (kinetic assays) and to the mixed inhibition model (inhibition assays) in GraphPad Prism 8 software ([Copeland, 2013]).

[8] = molecular target: T6, PtGSTU20; experiment: as above; type: biochemical
Method: as §4

[9] = molecular target: T5, PtGSTU19; experiment: Thermal shift assay (SYPRO orange); type: binding
Method: (§1) Assays were performed in a mixture (final volume of 25 µL) containing 30 mM Tris-HCl pH 8.0, 100 µM of chemical compounds (diluted in 8% DMSO) originating from a chemical library (Supplementary Tables S2, S3), 20 µM of PtGSTU19 or 20, and 5X SYPRO orange. […] The denaturation temperature, which corresponds to the temperature at which 50% of the total fluorescence is measured, was determined by the nonlinear regression Boltzmann sigmoidal model in GraphPad Prism 8 software for data obtained in the presence of potential ligands. This temperature was compared with a reference assay in which organic compounds were replaced by an equivalent DMSO concentration.

[10] = molecular target: T6, PtGSTU20; experiment: Thermal shift assay (SYPRO orange); type: binding
Method: as §1

[11] = molecular target: T5, PtGSTU19; experiment: Peroxidase activity, NADPH coupled spectrophotometric assay; type: biochemical; details: for Peroxidase activity (active on the peroxide): enzyme concentration increased up to 10 µM
Method: as §2, §4

[12] = molecular target: T6, PtGSTU20; experiment: as above; type: biochemical; details: for Peroxidase activity (active on the peroxide): enzyme concentration increased up to 10 µM
Method: as §2, §4

[13] = molecular target: T1, PtGSTU19Y160A; details: PtGSTU19 Y160A, peroxidase activity, mean ± S.D., n = 3
Method: as §2, §3

[14] = molecular target: T2, PtGSTU19Y160C; details: PtGSTU19 Y160C, peroxidase activity, mean ± S.D., n = 3
Method: as §2, §3

[15] = molecular target: T3, PtGSTU19Y160F; details: PtGSTU19 Y160F, peroxidase activity, mean ± S.D., n = 3
Method: as §2, §3

[16] = molecular target: T4, PtGSTU20C160Y; details: PtGSTU19 C160Y in Table S4, peroxidase activity, mean ± S.D., n = 3
Method: as §2, §3

[17] = 25°C, fixed 1 mM GSH (0.7 mM with HNE), mean ± S.D., n = 3
[18] = read-out: ΔTd (denaturation temperature difference), PtGSTU19 20 µM, compound 100 µM, vs DMSO reference, flavonoid set (Table S3, Figure 4)
[19] = read-out: ΔTd (denaturation temperature difference), PtGSTU19 apo form 20 µM, compound 100 µM, vs DMSO reference, first chemical library screen (Table S2, Figure S9)
[20] = read-out: ΔTd (denaturation temperature difference), PtGSTU20 20 µM, compound 100 µM, vs DMSO reference, flavonoid set (Table S3, Figure 4)
[21] = read-out: ΔTd (denaturation temperature difference), PtGSTU20 apo form 20 µM, compound 100 µM, vs DMSO reference, first chemical library screen (Table S2, Figure S9)
[22] = read-out: ΔTd (denaturation temperature difference)
[23] = peroxidase activity, 1 mM GSH, pH 8.0, mean ± S.D., n = 3
[24] = read-out: apparent K m, peroxidase activity, 1 mM GSH, pH 8.0, mean ± S.D., n = 3
[25] = PtGSTU19 apo form 20 µM, compound 100 µM, vs DMSO reference, first chemical library screen (Table S2, Figure S9)
[26] = PtGSTU20 apo form 20 µM, compound 100 µM, vs DMSO reference, first chemical library screen (Table S2, Figure S9)
[27] = PtGSTU19 20 µM, compound 100 µM, vs DMSO reference, flavonoid set (Table S3, Figure 4), read-out: ΔTd (denaturation temperature difference)
[28] = PtGSTU20 20 µM, compound 100 µM, vs DMSO reference, flavonoid set (Table S3, Figure 4), read-out: ΔTd (denaturation temperature difference)

T5 sequence (B9HKX9 entry or part of it): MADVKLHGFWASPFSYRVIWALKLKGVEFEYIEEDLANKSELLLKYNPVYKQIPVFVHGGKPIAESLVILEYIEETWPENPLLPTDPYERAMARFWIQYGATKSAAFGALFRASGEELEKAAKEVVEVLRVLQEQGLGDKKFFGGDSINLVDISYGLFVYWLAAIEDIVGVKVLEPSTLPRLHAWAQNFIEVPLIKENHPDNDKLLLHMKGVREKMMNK
T4 sequence (D2X9R3 2-219 C160Y): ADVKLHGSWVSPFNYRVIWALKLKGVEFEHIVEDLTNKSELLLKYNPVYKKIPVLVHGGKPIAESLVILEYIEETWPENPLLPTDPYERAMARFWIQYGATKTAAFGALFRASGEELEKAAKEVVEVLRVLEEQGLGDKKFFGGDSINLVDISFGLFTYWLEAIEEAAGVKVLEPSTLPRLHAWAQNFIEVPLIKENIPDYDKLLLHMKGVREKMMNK
T6 sequence (D2X9R3 entry or part of it): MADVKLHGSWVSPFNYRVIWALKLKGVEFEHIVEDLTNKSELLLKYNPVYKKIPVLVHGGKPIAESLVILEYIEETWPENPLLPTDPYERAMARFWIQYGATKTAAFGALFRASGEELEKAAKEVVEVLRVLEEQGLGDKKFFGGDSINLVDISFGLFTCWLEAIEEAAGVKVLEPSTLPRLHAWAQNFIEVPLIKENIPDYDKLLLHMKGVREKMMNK
T2 sequence (B9HKX9 2-219 Y160C): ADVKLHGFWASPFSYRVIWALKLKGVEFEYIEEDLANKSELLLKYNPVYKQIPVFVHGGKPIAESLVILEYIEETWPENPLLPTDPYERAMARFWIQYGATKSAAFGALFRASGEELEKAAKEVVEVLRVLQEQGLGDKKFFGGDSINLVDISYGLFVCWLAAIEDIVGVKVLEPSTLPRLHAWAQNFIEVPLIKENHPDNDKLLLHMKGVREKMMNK
T1 sequence (B9HKX9 2-219 Y160A): as the sequence (B9HKX9 2-219 Y160C) above, with C159A counted along it
T3 sequence (B9HKX9 2-219 Y160F): as the sequence (B9HKX9 2-219 Y160C) above, with C159F counted along it

Compound: S=C=NCc1ccccc1 [BITC, benzyl-isothiocyanate]
- k cat [1]: 6.5 ± 0.2 s⁻¹
- Km [1]: 30.6 ± 4.5 µM
- k cat [2]: 6.7 ± 0.1 s⁻¹
- Km [2]: 54.1 ± 3.3 µM
- k cat [3]: 8.3 ± 0.2 s⁻¹
- Km [3]: 36.3 ± 3.3 µM
- k cat [4]: 4.9 ± 0.1 s⁻¹
- Km [4]: 71.4 ± 9.6 µM
- Catalytic efficiency [5]: 132200 M⁻¹ s⁻¹
- k cat [5]: 7.0 ± 0.1 s⁻¹
- k cat [6, 17]: 10.4 ± 0.3 s⁻¹

Compound: O=c1cc(-c2ccccc2)oc2cc(O)c(O)c(O)c12 [Baicalein]
- Ki [7]: 35.2 ± 2.8 µM
- Ki [8]: 7.1 ± 0.6 µM
- ΔTm at 100 µM [9, 18]: 0.73 ± 0.2 °C
- ΔTm at 100 µM [9, 19]: > 4 °C
- ΔTm at 100 µM [10, 20]: 3.4 °C
- ΔTm at 100 µM [10, 21]: > 4 °C

Compound: O=[N+]([O-])c1ccc(Cl)c([N+](=O)[O-])c1 [CDNB]
- k cat [1]: 7.2 ± 0.9 s⁻¹
- Km [1]: 7040 ± 1380 µM
- k cat [2]: 14.0 ± 1.2 s⁻¹
- Km [2]: 4160 ± 620 µM
- k cat [3]: 17.3 ± 1.0 s⁻¹
- Km [3]: 3670 ± 390 µM
- k cat [4]: 0.59 ± 0.03 s⁻¹
- Km [4]: 2250 ± 229 µM
- k cat [5]: 28.8 ± 2.2 s⁻¹
- k cat/K m [5]: 8.9 ± 0.8 10^3 M^-1s^-1
- Catalytic efficiency of PtGSTU19 relative to PtGSTU20 ([5]; PtGSTU19 higher than PtGSTU20): 30 times
- Km ([5]; read-out: apparent K m, PtGSTU19, 25°C, fixed 1 mM GSH (0.7 mM with HNE), mean ± S.D., n = 3): 3390 ± 502 µM
- Catalytic efficiency [6]: 300 M⁻¹ s⁻¹
- k cat [6, 17]: 0.59 ± 0.03 s⁻¹
- k cat/K m [6, 17]: 0.33 ± 0.01 10^3 M^-1s^-1
- Km ([6]; read-out: apparent K m, 25°C, fixed 1 mM GSH (0.7 mM with HNE), mean ± S.D., n = 3): 1780 ± 193 µM

Compound: O=c1cc(-c2ccccc2)oc2cc(O)cc(O)c12 [Chrysin]
- ΔTm at 100 µM [9, 22]: -0.05 ± 0.07 °C
- ΔTm at 100 µM [10, 22]: 2.07 °C

Compound: CC(C)(OO)c1ccccc1 [CuOOH, cumene hydroperoxide]
- Peroxidase activity (active on the peroxide) [11]: weakly active
- Catalytic efficiency ([11]; peroxidase activity): 800 M⁻¹ s⁻¹
- k cat [11, 23]: 0.17 ± 0.01 s⁻¹
- k cat/K m [11, 23]: 0.85 ± 0.04 10^3 M^-1s^-1
- Km [11, 24]: 197 ± 31.1 µM
- Peroxidase activity (active on the peroxide) [12]: weakly active
- Catalytic efficiency ([12]; peroxidase activity): 2400 M⁻¹ s⁻¹
- k cat [12, 23]: 0.24 ± 0.01 s⁻¹
- k cat/K m [12, 23]: 2.4 ± 0.1 10^3 M^-1s^-1
- Km [12, 24]: 98.6 ± 15.4 µM
- k cat [13]: 0.33 ± 0.02 s⁻¹
- Km ([13]; read-out: apparent KM): 701 ± 82.7 µM
- k cat [14]: 0.45 ± 0.03 s⁻¹
- Km ([14]; read-out: apparent KM): 1260 ± 140 µM
- k cat [15]: 0.49 ± 0.01 s⁻¹
- Km ([15]; read-out: apparent KM): 347 ± 34.6 µM
- k cat [16]: 0.14 ± 0.01 s⁻¹
- Km ([16]; read-out: apparent KM): 491 ± 97.5 µM

Compound: N[C@@H](CCC(=O)N[C@@H](CS)C(=O)NCC(=O)O)C(=O)O [GSH, glutathione]
- ΔTd (denaturation temperature difference) [9, 25]: little or no change
- ΔTd (denaturation temperature difference) [10, 26]: little or no change
- apparent affinity for glutathione, reduced by a factor [3]: 4
- variation of apparent affinity for glutathione [3]: no variation

Compound: O=c1c(O)c(-c2ccccc2)oc2cc(O)cc(O)c12 [Galangin]
- Ki ([7]; read-out: K i): 157 ± 28.7 µM
- Ki ([8]; read-out: K i): 43.8 ± 0.6 µM
- ΔTm at 100 µM [9, 27]: 1.59 ± 0.29 °C
- ΔTd (denaturation temperature difference) ([10]; PtGSTU20 20 µM, compound 100 µM, vs DMSO reference, flavonoid set (Table S3, Figure 4), 100 µM): 5.89 ± 0.64 °C
- ΔTm at 100 µM [10, 28]: 7.42 °C

Compound: OO [H2O2, hydrogen peroxide]
- Peroxidase activity (active on the peroxide) [11]: not
- Peroxidase activity (active on the peroxide) [12]: not

Compound: CCCCCC(O)C=CC=O (centres unmarked) [HNE, 4-hydroxy-2-nonenal]
- Catalytic efficiency [5]: 2000 M⁻¹ s⁻¹

Compound: O=c1c(O)c(-c2ccc(O)cc2O)oc2cc(O)cc(O)c12 [Morin]
- Ki [7]: 72.9 ± 5.3 µM
- Ki [8]: 16 ± 0.9 µM
- ΔTm at 100 µM [9, 18]: 0.37 ± 0.16 °C
- ΔTm at 100 µM [9, 19]: > 4 °C
- ΔTm at 100 µM [10, 20]: 4.36 °C
- ΔTm at 100 µM [10, 21]: > 4 °C

Compound: S=C=NCCc1ccccc1 [PITC, phenethyl-isothiocyanate]
- k cat [1]: 2.3 ± 0.03 s⁻¹
- Km [1]: 49.2 ± 2.6 µM
- k cat [2]: 3.05 ± 0.05 s⁻¹
- Km [2]: 40.3 ± 3 µM
- k cat [3]: 3.9 ± 0.07 s⁻¹
- Km [3]: 31.1 ± 2.5 µM
- k cat [4]: 2.03 ± 0.08 s⁻¹
- Km [4]: 58.3 ± 9.2 µM
- k cat [5]: 3.8 ± 0.1 s⁻¹
- Catalytic efficiency [6]: 88900 M⁻¹ s⁻¹
- k cat [6, 17]: 5.1 ± 0.1 s⁻¹

Compound: CCCC(=O)Oc1ccc([N+](=O)[O-])cc1 [PNP-butyrate, 4-nitrophenyl-butyrate]
- Catalytic efficiency [5]: 100 M⁻¹ s⁻¹
- k cat [5]: 0.040 ± 0.001 s⁻¹
- k cat/K m [5]: 0.100 ± 0.002 10^3 M^-1s^-1
- Catalytic efficiency [6]: 100 M⁻¹ s⁻¹
- k cat [6, 17]: 0.020 ± 0.001 s⁻¹

Compound: O=C1C[C@@H](c2ccccc2)Oc2cc(O)cc(O)c21 [Pinocembrin]
- Ki ([7]; read-out: K i): 152 ± 13.5 µM
- Ki ([8]; read-out: K i): 61.2 ± 10.5 µM
- ΔTm at 100 µM [9, 27]: -0.01 ± 0.12 °C
- ΔTm at 100 µM [10, 28]: 1.68 °C

Compound: O=c1cc(-c2ccc(O)cc2)oc2cc(O)cc(O)c12 [apigenin]
- ΔTm at 100 µM [10, 22]: 1.41 °C

Compound: O=C(/C=C/c1ccc(O)c(O)c1)c1ccc(O)cc1O [butein]
- ΔTm at 100 µM [10, 28]: 2.32 °C

Compound: O=C(CCc1ccc(O)cc1)c1c(O)cc(O)cc1O [phloretin]
- ΔTm at 100 µM [10, 28]: 3.11 °C

Compound: O=c1c(O)c(-c2ccc(O)c(O)c2)oc2cc(O)cc(O)c12 [quercetin]
- ΔTm at 100 µM [9, 22]: > 4 °C
- ΔTm at 100 µM [10, 22]: > 4 °C

Compound: CC(C)(C)OO [t-BOOH, tert-butyl hydroperoxide]
- Peroxidase activity (active on the peroxide) [11]: not
- Peroxidase activity (active on the peroxide) [12]: not

Compound: COc1c(O)cc(O)c2c(=O)cc(-c3ccccc3)oc12 [wogonin]
- ΔTm at 100 µM [10, 20]: 5.17 °C

Compound: glutathionyl-phenylacetophenone [GS-PAP]
- Ki ([7]; PtGSTU19, GSH-conjugating reaction with PITC as substrate, mixed model inhibition, ND = no inhibition was detected, read-out: K i): 2.3 ± 0.8 µM
- Ki ([8]; PtGSTU20, GSH-conjugating reaction with PITC as substrate, mixed model inhibition, ND = no inhibition was detected, read-out: K i): 5.1 ± 2.1 µM
- ΔTd (denaturation temperature difference) ([9]; PtGSTU19 20 µM, compound 100 µM, vs DMSO reference, flavonoid set (Table S3, Figure 4)): 4.99 ± 0.28 °C
- ΔTd (denaturation temperature difference) [9, 25]: +8.39 °C
- ΔTd (denaturation temperature difference) ([10]; PtGSTU20 20 µM, compound 100 µM, vs DMSO reference, flavonoid set (Table S3, Figure 4)): 6.48 ± 0.17 °C
- ΔTd (denaturation temperature difference) [10, 26]: +9.62 °C

Compound: oxidized glutathione [GSSG]
- ΔTd (denaturation temperature difference) [9, 25]: little or no change
- ΔTd (denaturation temperature difference) [10, 26]: little or no change
